Source: patent publication US20260176253A1 (priority 2021, published 2026)

Key:
[1] = test system: mice; assay: Head-twitch response (HTR) in mice; type: in vivo
Experimental: Head twitch response (HTR) experiments. C57BL/6J Mice (9-10 weeks old) are housed following an IACUC approved protocol. The mice are habituated in the test cage for at least 30 min, injected intraperitoneally with compound (injection volume 5 ml/kg), returned to the empty test cage, and filmed for 20 minutes. Each video is scored for the number of head-twitches by a trained observer blinded to treatment condition.

[2] = test system: 5HT2A sensor; type: cell-based
[3] = test system: 5HT2A sensor; type: cell-based; remark: listed apart in the source

SMILES	head-twitch response (HTR) [1]	activation of the 5HT2A sensor assay in agonist mode [2]	competition with 5-HT in the 5HT2A sensor assay in antagonist mode [3]
COc1ccc2c(CCN(C)C)c[nH]c2c1 [Compound 6-MeO-DMT]	does not produce a HTR	do not activate the 5HT2A sensor assay in agonist mode	compete off 5-HT
COc1ccc2[nH]cc(CCN(C)C)c2c1 [Compound 5-MeO-DMT]	robust, dose-dependent head-twitch response	activate the 5HT2A sensor assay in agonist mode	–
